Data set [1] deals with B16-F1. Nature of the data set: SRB antiproliferation assay, B16-F1 melanoma. The class given is cell-based, mouse. From the text: (§1) For melanoma assays, one human melanoma cell line (A375) and one mouse melanoma cell line (B16-F1) were used. […] Fibroblast cells were used as a control to determine the selectivity of these compounds against melanoma. Human dermal fibroblast cells were purchased from Cascade Biologics, Inc., Portland, Oreg., USA.
Background: The SRB assay estimates cell density from bound dye.

The subject of data set [2] is A375. Put plainly: SRB antiproliferation assay, A375 melanoma. Format: cell-based, human.
Text: as §1

Data set [3] relates to melanoma (A375, B16-F1) and prostate cancer cells (DU145, PC-3, LNCaP, PPC-1). Put plainly: SRB assay, range over melanoma and prostate cancer cell lines. The class given is cell-based. The note with it: for antiproliferative activity against melanoma and prostate cancer cell lines, in words: compared with 8f or parent compounds. As to the method:
For melanoma assays, one human melanoma cell line (A375) and one mouse melanoma cell line (B16-F1) were used. […] Fibroblast cells were used as a control to determine the selectivity of these compounds against melanoma. Human dermal fibroblast cells were purchased from Cascade Biologics, Inc., Portland, Oreg., USA. […] Cells were exposed to a wide range of concentrations for 48 h in round-bottomed 96-well plates. […] After cells were air-dried overnight and stained with SRB solution, total proteins were measured at 560 nm with a plate reader.

Data set [4] deals with PC-3. Nature of the data set: SRB antiproliferation assay, PC-3 prostate cancer. Conditions: read-out: IC50 PC-3, SRB.
The test system of data set [5] is LNCaP. Nature of the data set: SRB antiproliferation assay, LNCaP prostate cancer. Conditions: read-out: IC50 LNCaP, SRB.
Data set [6] concerns PPC-1. Put plainly: SRB antiproliferation assay, PPC-1 prostate cancer. The note with it: read-out: IC50 PPC-1; SRB, 96 h; listed as 4b(4S).
For data set [7], the system named is DU 145. Put plainly: SRB antiproliferation assay, DU 145 prostate cancer. The note with it: read-out: IC50 DU 145; SRB.
Setting [8] is: Mus musculus, B16-F1, 48 h, SRB, 48 h, read-out: IC50 B16-F1 (converted).
The mark [9] stands for this setting: Homo sapiens, A-375, 48 h, SRB, 48 h, read-out: IC50 A375 (converted).
Where [10] appears, read: range over the examined cell lines, read-out: IC50 over melanoma and prostate cancer cell lines.
The mark [11] stands for this setting: Mus musculus, B16-F1, read-out: IC50 B16-F1.
[12] abbreviates: Homo sapiens, A-375, read-out: IC50 A375.
Setting [13] is: Mus musculus, B16-F1, SRB, read-out: IC50 B16-F1 (converted).
Where [14] appears, read: Homo sapiens, A-375, SRB, read-out: IC50 A375 (converted).

Each structure is given as a SMILES string. Where “and” joins values, the source holds several entries; their conditions need not be identical. Identical values can stand only once. Like-named read-outs stand apart in the source and are kept apart here. Some results are limits rather than exact numbers.

As a reminder, the melting point is the temperature, or range, at which the solid turns liquid. The term IC50 denotes the midpoint of a concentration-inhibition curve. `COc1cc(NC(=O)[C@@H]2CSC(c3ccccc3)N2)cc(OC)c1OC` (mixture of isomers) [2a, (2RS,4R)-2-Phenyl-N-(3,4,5-trimethoxyphenyl)thiazolidine-4-carboxamide] registered a melting point of 158 to 159 °C. Also, the IC50 in data set [1] (setting [8]) was greater than 100 µM. Further, the IC50 in data set [2] (setting [9]) was greater than 100 µM. In data set [3], the “antiproliferative activity against melanoma and prostate cancer cell lines, in words” value (shortened to “antiproliferative activity”) is “potency against both cancer cell lines was lost”.

For `COc1cc(NC(=O)[C@@H]2CSC(c3cc(OC)c(OC)c(OC)c3)N2)cc(OC)c1OC` (mixture of isomers) [2b, (2RS,4R)—N,2-bis(3,4,5-trimethoxyphenyl)thiazolidine-4-carboxamide], the melting point lay in the range of 147 to 149 °C. For the same molecule, the 50% inhibitory concentration (IC50) in data set [1] (setting [8]) is greater than 100 µM. Also, the IC50 in data set [2] (setting [9]) is greater than 100 µM. The “antiproliferative activity” value in data set [3] is given as “potency against both cancer cell lines was lost”.

With `COc1cc(NC(=O)[C@@H]2CSC(c3ccccc3)=N2)cc(OC)c1OC` [4a, (4R)-2-Phenyl-N-(3,4,5-trimethoxyphenyl)-4,5-dihydrothiazole-4-carboxamide], the melting point was 121 to 122 °C and 122 to 123 °C. Also, the half-inhibitory concentration (IC50) in data set [1] (setting [8]) is 38.3 ± 3.2 µM. Moreover, the half-maximal inhibitory concentration (IC50) in data set [2] (setting [9]) was 22.8 ± 1.6 µM. Besides, in data set [3] (setting [10]), the IC50 was in the range of 3.4 to 38.3 µM.

For `COc1cc(NC(=O)[C@@H]2CSC(c3ccccc3)=N2)cc(OC)c1OC` [4b, (4R)-2-Phenyl-N-(3,4,5-trimethoxyphenyl)-4,5-dihydrothiazole-4-carboxamide], the IC50 in data set [4] (96 h, listed as 4b(4S)) is 13.2 ± 2.1 µM; in data set [1] (SRB, 48 h, listed as 4b(4S), read-out: IC50 B16-F1 (converted)), 30.4 ± 2.8 µM; in data set [2] (SRB, 48 h, listed as 4b(4S), read-out: IC50 A375 (converted)) it was 13.6 ± 1.2 µM; in data set [5] (96 h, listed as 4b(4S)), 16.8 ± 1.8 µM; in data set [6], 3.4 ± 0.2 µM.

As to `O=C(c1ccccc1)c1csc(-c2ccccc2)n1` [8a, Phenyl (2-phenylthiazol-4-yl)-methanone], the melting point was 65 to 66 °C. In addition, the 50% inhibitory concentration (IC50) in data set [1] (setting [8]) was greater than 100 µM. In addition, the IC50 in data set [2] (setting [9]) was greater than 100 µM.

In turn, `COc1ccc(C(=O)c2csc(-c3ccccc3)n2)cc1` [8b, (4-Methoxyphenyl)(2-phenylthiazol-4-yl)-methanone] registered a melting point of 105 to 106 °C. For the same molecule, the IC50 in data set [1] (setting [8]) is greater than 100 µM. The IC50 in data set [2] (setting [9]) is greater than 100 µM. Also, the IC50 in data set [3] (setting [10]) is greater than 20 µM.

Molecule `COc1cccc(C(=O)c2csc(-c3ccccc3)n2)c1` [8c, (3-Methoxyphenyl)(2-phenylthiazol-4-yl)-methanone] showed a melting point of 43 to 44 °C. The IC50 in data set [1] (setting [8]) is greater than 100 µM. For the same molecule, the concentration for half-maximal inhibition (IC50) in data set [2] (setting [9]) was greater than 100 µM. Besides, in data set [3] (setting [10]), the IC50 was greater than 20 µM.

Take `COc1ccccc1C(=O)c1csc(-c2ccccc2)n1` [8d, (2-Methoxyphenyl)(2-phenylthiazol-4-yl)-methanone]: the IC50 is 59.4 µM in data set [1] (setting [8]), 70.3 µM in data set [2] (setting [9]) and greater than 20 µM in data set [3] (setting [10]).

As for `COc1ccc(C(=O)c2csc(-c3ccccc3)n2)cc1OC` [8e, (3,4-Dimethoxyphenyl)(2-phenylthiazol-4-yl)-methanone], the melting point was 89 to 91 °C. Further, in data set [1] (setting [8]), the concentration for half-maximal inhibition (IC50) is greater than 100 µM. The 50% inhibitory concentration (IC50) in data set [2] (setting [9]) is greater than 100 µM. For the same molecule, the half-inhibitory concentration (IC50) in data set [3] (setting [10]) is greater than 20 µM.

Molecule `COc1cc(OC)cc(C(=O)c2csc(-c3ccccc3)n2)c1` [8g, (3,5-Dimethoxyphenyl)(2-phenylthiazol-4-yl)-methanone] registered a melting point of 84 to 85 °C. For the same molecule, the half-inhibitory concentration (IC50) in data set [1] (setting [8]) was 0.35 µM. In addition, in data set [2] (setting [9]), the half-maximal inhibitory concentration (IC50) was 0.17 µM. Further, the 50% inhibitory concentration (IC50) in data set [3] (average over six cell lines, read-out: average IC50) was 0.261 µM. In addition, the IC50 in data set [3] (setting [10]) was in the range of 0.17 to 0.424 µM.

Take `O=C(c1csc(-c2ccccc2)n1)c1ccccc1F` [8h, (2-Fluorophenyl)(2-phenylthiazol-4-yl)-methanone]: the melting point was in the range of 77 to 79 °C. The IC50 in data set [1] (setting [8]) was greater than 100 µM. In addition, the IC50 in data set [2] (setting [9]) was greater than 100 µM.

`O=C(c1ccccn1)c1csc(-c2ccccc2)n1` [8i, (2-Phenylthiazol-4-yl)-(pyridin-2-yl)-methanone]: the melting point lay within 95 to 97 °C. Besides, the “antiproliferative activity” value in data set [3] is “total loss of the anti-cancer activity”.

`CCCCCCCCCCCCCCCCC(=O)c1csc(-c2ccccc2)n1` [8j, 1-(2-Phenylthiazol-4-yl)-heptadecan-1-one] showed a melting point of 63 to 64 °C. Moreover, the IC50 in data set [1] (setting [8]) was 18.6 µM. For the same molecule, the IC50 in data set [2] (setting [9]) is 16 µM.

With `COc1cc(C(=O)c2csc(-c3ccc(C)cc3)n2)cc(OC)c1OC` [8k, (2-p-Tolylthiazol-4-yl)-(3,4,5-trimethoxyphenyl)-methanone], the melting point is 116 to 119 °C. For the same molecule, the IC50 in data set [4] is 0.005 µM. The IC50 in data set [3] (setting [10]) fell in the range of 0.005 to 0.021 µM.

With `COc1cc(C(=O)c2csc(-c3ccc(C(=O)O)cc3)n2)cc(OC)c1OC` [8r, 4-[4-(3,4,5-Trimethoxybenzoyl)-thiazol-2-yl]-benzoic acid], the melting point was > 220 °C (dec.). Further, the “antiproliferative activity” value in data set [3] is recorded as “total loss of the anti-cancer activity”.

Consider `COC(=O)c1ccc(-c2nc(C(=O)c3cc(OC)c(OC)c(OC)c3)cs2)cc1` [8s, Methyl-4-[4-(3,4,5-trimethoxybenzoyl)-thiazol-2-yl]-benzoate], for which the melting point was 172 to 174 °C. In addition, in data set [3], the “antiproliferative activity” value is “total loss of potency”.

Consider `COc1cc(C(=O)c2csc(-c3ccc(N)cc3)n2)cc(OC)c1OC` [8w, [2-(4-Amino-phenyl)-thiazol-4-yl]-(3,4,5-trimethoxy-phenyl)-methanone], for which the IC50 in data set [3] (setting [10]) is 0.011 to 0.029 µM.

On to `COc1cc(C(=O)c2csc(-c3cccs3)n2)cc(OC)c1OC` [8z, [2-(Thiophen-2-yl)-thiazol-4-yl]-(3,4,5-trimethoxyphenyl)-methanone], for which the 50% inhibitory concentration (IC50) in data set [7] was 0.022 ± 0.001 µM; in data set [1] (setting [11]) it was 0.038 ± 0.015 µM; in data set [2] (setting [12]) it was 0.02 ± 0.007 µM; in data set [5], 0.009 ± 0.001 µM; in data set [3] (setting [10]), 0.009 to 0.038 µM.

As to `O=C(c1cc(O)c(O)c(O)c1)c1csc(-c2ccccc2)n1` [11f, (2-Phenyl-thiazol-4-yl)-(3,4,5-trihydroxy-phenyl)-methanone], the “antiproliferative activity” value in data set [3] is on record as “complete loss of antiproliferative activity”.

In the case of `O=C(c1ccc(F)cc1)c1csc(-c2ccccc2)n1` [12-12], the IC50 in data set [1] (setting [13]) and in data set [2] (setting [14]) was greater than 10 µM each time.

Consider `O=C(c1ccc(F)cc1)c1csc(-c2ccc(F)cc2)n1` [14-14], for which the IC50 in data set [1] (setting [13]) and in data set [2] (setting [14]) was greater than 10 µM each time.

Consider `O=C(c1csc(-c2cc(F)c(F)c(F)c2)n1)c1c(F)c(F)c(F)c(F)c1F` [16-16], for which the IC50 in data set [1] (setting [13]) is 6.9 µM; in data set [2] (setting [14]), 15.2 µM.

As to `O=C(c1csc(-c2ccccc2)n1)c1c(F)c(F)c(F)c(F)c1F` [17-17], the half-inhibitory concentration (IC50) is 9.8 µM in data set [1] (setting [13]) and 4.3 µM in data set [2] (setting [14]).

With `O=C(c1ccc2c(c1)OCO2)N1CCC(c2ccccc2)CC1` [19-19], the 50% inhibitory concentration (IC50) in data set [1] (setting [13]) and in data set [2] (setting [14]) was greater than 20 µM throughout.

Take `O=C(c1ccc(F)cc1)N1CCC(c2ccccc2)CC1` [22-22]: the IC50 in data set [1] (setting [13]) and in data set [2] (setting [14]) was greater than 20 µM each time.

For `COc1cc(C(=O)c2csc(-c3ccc(N)cc3)n2)cc(OC)c1OC` [26-26], the results for the IC50 in data set [1] (setting [11]) and in data set [2] (setting [12]) were 0.014 µM and 0.011 µM, respectively.

For `Cc1ccc(-c2nc(C(=O)c3ccc(F)cc3)cn2C(=O)c2ccc(F)cc2)cc1` [29-29], the 50% inhibitory concentration (IC50) in data set [1] (setting [13]) and in data set [2] (setting [14]) was greater than 10 µM in each case.

On to `COc1cc(-c2nc(C(=O)c3ccc(F)cc3)cn2C(=O)c2ccc(F)cc2)cc(OC)c1OC` [30-30], for which the concentration for half-maximal inhibition (IC50) in data set [1] (setting [13]) and in data set [2] (setting [14]) was greater than 10 µM each time.

On to `O=C(c1cc(O)c(O)c(O)c1)c1csc(-c2ccccc2)n1` [33-33], for which the 50% inhibitory concentration (IC50) is greater than 20 µM in data set [1] (setting [13]) and 9.8 µM in data set [2] (setting [14]).

Consider `COc1cc(C(=O)c2csc(-c3ccccc3)n2)cc(OC)c1O` [34-34], for which the IC50 in data set [1] (setting [13]) and in data set [2] (setting [14]) was greater than 10 µM each time.

On to `COc1cc(NC(=O)c2csc(-c3ccccc3)n2)cc(OC)c1OC` [compound 5, 2-Phenyl-N-(3,4,5-trimethoxyphenyl)thiazole-4-carboxamide], for which the melting point lay within 157 to 158 °C. In addition, in data set [1] (setting [8]), the half-maximal inhibitory concentration (IC50) was greater than 100 µM. The IC50 in data set [2] (setting [9]) is greater than 100 µM. Further, the “antiproliferative activity” value in data set [3] is reported as “did not show any cytotoxicity”.

Values taken from patent US10865196B2, “Compounds for treatment of cancer” (University of Tennessee Research Foundation, priority 2008, dated 2020).
